From ChEMBL document CHEMBL1146200, “In vitro activity of aurein 1.2 alone and in combination with antibiotics against gram-positive nosocomial cocci” (Antimicrob Agents Chemother, 2007)
Values after ≈ are worked out from the molar mass of the structure shown. Non-standard residues stand in square brackets, D forms with d. Residues, ends and D or L forms follow the SMILES beside them. Phg = N[C@H](C(=O)O)c1ccccc1

Legend:
[1] = test system: Enterococcus faecalis; assay: Antimicrobial activity against vancomycin-susceptible Enterococcus faecalis ATCC 29212; type: functional; conditions: for MIC50 / MIC90: Enterococcus faecalis, ATCC 29212
[2] = test system: Streptococcus pyogenes; assay: Antimicrobial activity against Streptococcus pyogenes ATCC 19615; type: functional; conditions: for MIC50 / MIC90: Streptococcus pyogenes, ATCC 19615
[3] = test system: A549; assay: Cytotoxicity against human A549 cells; type: cell-based
[4] = test system: Staphylococcus aureus; assay: Antimicrobial activity against […] Staphylococcus aureus ATCC 29213; type: functional; conditions: for MIC50 / MIC90: Staphylococcus aureus, ATCC 29213
[5] = test system: Staphylococcus aureus; assay: Antimicrobial activity against […] Staphylococcus aureus ATCC 43300; type: functional; conditions: for MIC50 / MIC90: Staphylococcus aureus, ATCC 43300
[6] = test system: Enterococcus faecalis; assay: Antimicrobial activity against vancomycin-resistant Enterococcus faecalis ATCC 51299; type: functional; conditions: for MIC50 / MIC90: Enterococcus faecalis, ATCC 51299

| Compound | MBC50 [1] [µg/mL] | MBC90 [1] [µg/mL] | MIC50 [1] [µg/mL] | MIC90 [1] [µg/mL] | MBC50 [2] [µg/mL] | MBC90 [2] [µg/mL] | MIC50 [2] [µg/mL] | MIC90 [2] [µg/mL] | MBC50 [4] [µg/mL] | MBC90 [4] [µg/mL] | MIC50 [4] [µg/mL] | MIC90 [4] [µg/mL] | MBC50 [5] [µg/mL] | MBC90 [5] [µg/mL] | MIC50 [5] [µg/mL] | MIC90 [5] [µg/mL] | MBC50 [6] [µg/mL] | MBC90 [6] [µg/mL] | MIC50 [6] [µg/mL] | MIC90 [6] [µg/mL] | other results |
| --- | --- | --- | --- | --- | --- | --- | --- | --- | --- | --- | --- | --- | --- | --- | --- | --- | --- | --- | --- | --- | --- |
| CC[C@H](C)[C@H](NC(=O)[C@H](CCCCN)NC(=O)[C@H](CCCCN)NC(=O)[C@@H](NC(=O)[C@@H](NC(=O)[C@H](CC(=O)O)NC(=O)[C@H](Cc1ccccc1)NC(=O)[C@H](CC(C)C)NC(=O)CN)[C@@H](C)CC)[C@@H](C)CC)C(=O)N[C@@H](C)C(=O)N[C@@H](CCC(=O)O)C(=O)N[C@@H](CO)C(=O)N[C@H](C(N)=O)c1ccccc1 (H-GLFDIIKKIAES[Phg]-NH2) | 16 (≈ 10.9 µM) | 32 (≈ 21.8 µM) | 8 (≈ 5.46 µM) | 16 (≈ 10.9 µM) | 4 (≈ 2.73 µM) | 8 (≈ 5.46 µM) | 2 (≈ 1.36 µM) | 4 (≈ 2.73 µM) | 8 (≈ 5.46 µM) | 16 (≈ 10.9 µM) | 4 (≈ 2.73 µM) | 8 (≈ 5.46 µM) | 8 (≈ 5.46 µM) | 16 (≈ 10.9 µM) | 4 (≈ 2.73 µM) | 8 (≈ 5.46 µM) | 16 (≈ 10.9 µM) | 32 (≈ 21.8 µM) | 8 (≈ 5.46 µM) | 16 (≈ 10.9 µM) | Activity [3]: 2% |
| CC[C@H]1OC(=O)[C@H](C)[C@@H](O[C@H]2C[C@@](C)(OC)[C@@H](O)[C@H](C)O2)[C@H](C)[C@@H](O[C@@H]2O[C@H](C)C[C@H](N(C)C)[C@H]2O)[C@](C)(OC)C[C@@H](C)C(=O)[C@H](C)[C@@H](O)[C@]1(C)O [CLARITHROMYCIN] | 16 (≈ 21.4 µM) | 128 (≈ 171 µM) | 8 (≈ 10.7 µM) | 32 (≈ 42.8 µM) | 8 (≈ 10.7 µM) | 32 (≈ 42.8 µM) | 2 (≈ 2.67 µM) | 8 (≈ 10.7 µM) | 32 (≈ 42.8 µM) | – | 4 (≈ 5.35 µM) | 16 (≈ 21.4 µM) | 16 (≈ 21.4 µM) | 64 (≈ 85.6 µM) | 2 (≈ 2.67 µM) | 8 (≈ 10.7 µM) | 32 (≈ 42.8 µM) | – | 16 (≈ 21.4 µM) | 64 (≈ 85.6 µM) | – |
| C[C@@H](O)[C@H]1C(=O)N2C(C(=O)O)=C(SCCNC=N)C[C@H]12 [IMIPENEM ANHYDROUS] | 16 (≈ 53.4 µM) | 64 (≈ 214 µM) | 4 (≈ 13.4 µM) | 16 (≈ 53.4 µM) | 1 (≈ 3.34 µM) | 4 (≈ 13.4 µM) | 0.5 (≈ 1.67 µM) | 1 (≈ 3.34 µM) | 64 (≈ 214 µM) | 256 (≈ 855 µM) | 16 (≈ 53.4 µM) | 128 (≈ 428 µM) | 4 (≈ 13.4 µM) | 16 (≈ 53.4 µM) | 1 (≈ 3.34 µM) | 4 (≈ 13.4 µM) | 32 (≈ 107 µM) | 128 (≈ 428 µM) | 16 (≈ 53.4 µM) | 32 (≈ 107 µM) | – |
| CC(=O)NC[C@H]1CN(c2ccc(N3CCOCC3)c(F)c2)C(=O)O1 [LINEZOLID] | 2 (≈ 5.93 µM) | 4 (≈ 11.9 µM) | 1 (≈ 2.96 µM) | 2 (≈ 5.93 µM) | 1 (≈ 2.96 µM) | 2 (≈ 5.93 µM) | 0.5 (≈ 1.48 µM) | 1 (≈ 2.96 µM) | – | – | 0.5 (≈ 1.48 µM) | 2 (≈ 5.93 µM) | 0.5 (≈ 1.48 µM) | 2 (≈ 5.93 µM) | 0.5 (≈ 1.48 µM) | 2 (≈ 5.93 µM) | 4 (≈ 11.9 µM) | – | 1 (≈ 2.96 µM) | 2 (≈ 5.93 µM) | – |
| CN(C)c1ccc(O)c2c1C[C@H]1C[C@H]3[C@H](N(C)C)C(O)=C(C(N)=O)C(=O)[C@@]3(O)C(O)=C1C2=O [MINOCYCLINE] | 16 (≈ 35 µM) | 64 (≈ 140 µM) | 8 (≈ 17.5 µM) | 16 (≈ 35 µM) | 8 (≈ 17.5 µM) | 16 (≈ 35 µM) | 4 (≈ 8.74 µM) | 8 (≈ 17.5 µM) | – | – | 4 (≈ 8.74 µM) | 8 (≈ 17.5 µM) | 8 (≈ 17.5 µM) | 32 (≈ 69.9 µM) | 4 (≈ 8.74 µM) | 8 (≈ 17.5 µM) | – | – | 16 (≈ 35 µM) | 32 (≈ 69.9 µM) | – |
| CN[C@H](CC(C)C)C(=O)N[C@H]1C(=O)N[C@@H](CC(N)=O)C(=O)N[C@H]2C(=O)N[C@H]3C(=O)N[C@H](C(=O)N[C@H](C(=O)O)c4cc(O)cc(O)c4-c4cc3ccc4O)[C@H](O)c3ccc(c(Cl)c3)Oc3cc2cc(c3O[C@@H]2O[C@H](CO)[C@@H](O)[C@H](O)[C@H]2O[C@H]2C[C@](C)(N)[C@H](O)[C@H](C)O2)Oc2ccc(cc2Cl)[C@H]1O [VANCOMYCIN] | 2 (≈ 1.38 µM) | 4 (≈ 2.76 µM) | 1 (≈ 0.69 µM) | 2 (≈ 1.38 µM) | 1 (≈ 0.69 µM) | 2 (≈ 1.38 µM) | 0.5 (≈ 0.345 µM) | 1 (≈ 0.69 µM) | 1 (≈ 0.69 µM) | 2 (≈ 1.38 µM) | 1 (≈ 0.69 µM) | 2 (≈ 1.38 µM) | 1 (≈ 0.69 µM) | 2 (≈ 1.38 µM) | 1 (≈ 0.69 µM) | 2 (≈ 1.38 µM) | 64 (≈ 44.2 µM) | 256 (≈ 177 µM) | 32 (≈ 22.1 µM) | 64 (≈ 44.2 µM) | – |
